The values below come from patent US9453044.

For this data set the following is noted: amide bond, salicylaldehyde ester ligation, TFA, 2 steps.

Read-outs that look alike come from different tables or passages of the source.

Take `CC(C)C[C@@H]1NC(=O)[C@H](Cc2ccccc2)NC(=O)[C@H](CO)NC(=O)[C@H](C)NC(=O)[C@H](Cc2ccccc2)NC1=O` [SFLFA]: the ring closure, yield after HPLC (from H-Ser-Phe-Leu-Phe-Ala-OPhCHO?, 15-membered ring) is 35%.
`CC(C)C[C@@H]1NC(=O)[C@H](Cc2ccccc2)NC(=O)[C@H](C)NC(=O)[C@H](CCCCN)NC(=O)CNC(=O)[C@H](CO)NC1=O` [SGKAFL] yielded a ring closure, yield after HPLC (from H-Ser-Gly-Lys-Ala-Phe-Leu-OPhCHO?, 18-membered ring) of 39%.
As for `CC(C)C[C@@H]1NC(=O)CNC(=O)[C@H](CO)NC(=O)CNC(=O)[C@H](C)NC(=O)[C@H](Cc2ccccc2)NC(=O)CNC(=O)[C@H](Cc2ccccc2)NC1=O` [SGLFGFAG], the ring closure, yield after HPLC (from H-Ser-Gly-Leu-Phe-Gly-Phe-Ala-Gly-OPhCHO?, 24-membered ring) came out at 65%.
Consider `CC(C)C[C@@H]1NC(=O)CNC(=O)[C@H](CO)NC(=O)CNC(=O)[C@H](C)NC(=O)[C@H](Cc2ccccc2)NC(=O)CNC(=O)[C@H](Cc2ccc(O)cc2)NC1=O` [SGLYGFAG], for which the ring closure, yield after HPLC (from H-Ser-Gly-Leu-Tyr-Gly-Phe-Ala-Gly-OPhCHO?, 24-membered ring) worked out at 52%.
In turn, `CC(C)C[C@@H]1NC(=O)[C@H](CO)NC(=O)[C@H](CC(C)C)NC(=O)[C@H](CO)NC1=O` [SLSL] displayed a ring closure, yield after HPLC (from H-Ser-Leu-Ser-Leu-OPhCHO?, 12-membered ring) of 20%.
Molecule `C[C@@H](O)[C@@H]1NC(=O)CNC(=O)[C@H](Cc2ccccc2)NC(=O)[C@H](Cc2ccccc2)NC(=O)CNC(=O)[C@H](Cc2ccccc2)NC(=O)[C@H](Cc2ccccc2)NC1=O` [TFFGFFG] showed a ring closure, yield after HPLC (from H-Thr-Phe-Phe-Gly-Phe-Phe-Gly-OPhCHO?, 21-membered ring) of 56%.
For `CC(C)C[C@@H]1NC(=O)CNC(=O)[C@H]([C@@H](C)O)NC(=O)CNC(=O)[C@H](C)NC(=O)[C@H](Cc2ccccc2)NC(=O)CNC(=O)[C@H](Cc2ccccc2)NC1=O` [TGLFGFAG], under “from H-Thr-Gly-Leu-Phe-Gly-Phe-Ala-Gly-OPhCHO?, 24-membered ring”, the ring closure, yield after HPLC was 63%.
